Tests used:
[1] = test system: DIPGX29 (H3.3 K27M diffuse intrinsic pontine glioma line); experiment: maximal growth inhibition (yFin) relative to DMSO / staurosporine; higher = more efficacious
Method in brief: (§1)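 Compounds were delivered by pin tool as a 10-point threefold dilution series with a mean top concentration of 35 μM, in triplicate, to patient-derived pHGG/DIPG cell lines and astrocyte controls growing on 1% Geltrex-coated 384-well plates. Incubation lasted 7 days, or 3 days for iAstro, at 37 °C with 5% CO2. EC50 and maximal response (yFin) come from the three- or four-parameter log-logistic fit with the lowest AICc, applied to pooled, log2-transformed CellTiter-Glo luminescence normalised per plate to % activity between solvent (negative) and positive control wells.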

[2] = test system: HGGX6 (H3.3 G34R paediatric high-grade glioma line); experiment: as above
Method in brief: as §1

[3] = test system: DIPGX37 (H3.3 K27M diffuse intrinsic pontine glioma line); experiment: as above
Method in brief: as §1

[4] = test system: HGGX39 (paediatric high-grade glioma line); experiment: as above
Method in brief: as §1

[5] = test system: DIPGX29; experiment: EC50 (inflection of fitted growth-inhibition curve) (log10 M)
Method in brief: as §1

[6] = test system: HGGX6; experiment: as above
Method in brief: as §1

[7] = test system: DIPGX37; experiment: as above
Method in brief: as §1

[8] = test system: HGGX39; experiment: as above
Method in brief: as §1

[9] = test system: DIPGX29; experiment: area under dose-response curve of % growth inhibition (log2 RLU vs DMSO / staurosporine), 1e-11 to 1e-4 M (% x log10 M); higher = more growth inhibition
Method in brief: (§2)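 Area under the curve was derived with the trapezoid rule from a fitted log-logistic curve, switching to a smoothing spline if the sigmoid fit failed. It rested on per-plate % activity between solvent and positive controls, calculated from log2-transformed CellTiter-Glo luminescence after 7 days of exposure (3 days for iAstro) at 37 °C, 5% CO2. Patient-derived pHGG/DIPG lines and astrocytes on 1% Geltrex-coated 384-well plates received a 10-point threefold dilution series, mean top concentration 35 μM, in triplicate.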

[10] = test system: HGGX6; experiment: as above
Method in brief: as §2

[11] = test system: DIPGX37; experiment: as above
Method in brief: as §2

[12] = test system: HGGX39; experiment: as above
Method in brief: as §2

SMILES	maximal growth inhibition [1] [%]	maximal growth inhibition [2] [%]	maximal growth inhibition [3] [%]	maximal growth inhibition [4] [%]	EC50 (log10 M) [5]	EC50 (log10 M) [6]	EC50 (log10 M) [7]	EC50 (log10 M) [8]	area under dose-response curve [9]	area under dose-response curve [10]	area under dose-response curve [11]	area under dose-response curve [12]
O=C(CCCCCCNC(=O)c1cnc(N(c2ccccc2)c2ccccc2)nc1)NO [ROCILINOSTAT]	62.1	39.1	39.7	26.8	-4.94	-4.9	-4.87	-4.96	63.1	49.1	60.5	25.7
Cc1ccc(NC2=CC(=O)c3sc(C)nc3C2=O)cc1 [RYUVIDINE]	97.5	90.5	110	98.1	-6.12	-6.18	-5.7	-5.76	207	197	187	169
CC[C@@H](C(=O)[C@@H](C)[C@@H](O)[C@H](C)[C@@H]1O[C@@H]([C@@H](CC)C(=O)O)CC[C@@H]1C)[C@H]1O[C@]2(C=C[C@@H](O)[C@]3(CC[C@@](C)([C@H]4CC[C@](O)(CC)[C@H](C)O4)O3)O2)[C@H](C)C[C@@H]1C [SALINOMYCIN]	69.7	60.5	62.6	73.9	-5.32	-5.03	-6.53	-6.01	106	85.6	153	153
Clc1ccc(C(Cn2ccnc2)OCc2csc3c(Cl)cccc23)c(Cl)c1 (configuration not stated) [SERTACONAZOLE]	64.2	62.2	84.7	61.9	-4.81	-4.82	-4.87	-4.95	51.2	50.7	73.6	72.3
CN[C@H]1CC[C@@H](c2ccc(Cl)c(Cl)c2)c2ccccc21 [SERTRALINE]	85.3	81	86.5	91.4	-4.86	-4.79	-4.82	-4.83	73.3	63.3	70	83.8
CNC(=O)c1cc(Oc2ccc(NC(=O)Nc3ccc(Cl)c(C(F)(F)F)c3)cc2)ccn1 [SORAFENIB]	57.2	75.3	79	80.4	-4.82	-4.9	-4.9	-4.96	46.9	77.2	104	77
Cc1nc(-c2cccnc2)sc1C(=O)Nc1ccccc1-c1cn2c(CN3CCOCC3)csc2n1 [SRT2104]	69	67.3	68.5	72.4	-5.16	-5.21	-5.24	-4.84	79.7	80.8	101	60.9
Clc1ccc(CSC(Cn2ccnc2)c2ccc(Cl)cc2Cl)cc1 (configuration not stated) [SULCONAZOLE]	45.9	44.1	61.3	34.1	-4.86	-4.87	-4.68	-4.87	48.2	44.2	41.8	39.2
Cc1nc(-c2cn3c(n2)-c2ccc(-c4cnn(C(C)(C)C(N)=O)c4)cc2OCC3)n(C(C)C)n1 [TASELISIB]	63.3	38.8	56.7	47.5	-5.8	-6.13	-6.36	-5.49	122	86	138	74.8
COc1cc([C@@H]2c3cc4c(cc3[C@@H](O[C@@H]3O[C@@H]5CO[C@@H](c6cccs6)O[C@H]5[C@H](O)[C@H]3O)[C@H]3COC(=O)[C@H]23)OCO4)cc(OC)c1O [TENIPOSIDE]	33.5	31.2	50.7	37.6	-6.01	-5.36	-5.43	-5.94	63.2	42.9	81.2	75.2
Clc1ccc(C(Cn2ccnc2)OCc2ccsc2Cl)c(Cl)c1 (configuration not stated) [TIOCONAZOLE]	48.3	46.3	78	65.3	-4.77	-4.82	-4.73	-4.79	36.4	38.1	56	51.3
CN1CCN(CCCN2c3ccccc3Sc3ccc(C(F)(F)F)cc32)CC1 [TRIFLUOPERAZINE]	82.9	80.2	87.2	90.3	-4.89	-4.78	-4.88	-4.86	74.2	62.3	76.8	87.4
COc1cc2nc(N3CCCC3)nc(NCCCCCN3CCCC3)c2cc1OC [UNC0379]	71.8	70.1	71.5	72.1	-4.88	-4.91	-5.05	-4.89	70.8	73.6	75.1	69.3
COc1cc2c(NC3CCN(C(C)C)CC3)nc(N3CCC(F)(F)CC3)nc2cc1OCCCN1CCCC1 [UNC0642]	74.9	72.8	70.6	74.9	-4.96	-5.05	-5.19	-4.84	71.3	75.5	96	62.5
CCCc1cc(C)[nH]c(=O)c1CNC(=O)c1cc(-c2ccc(N3CCN(C(C)C)CC3)nc2)cc2c1cnn2C(C)C [UNC1999]	73.8	72.5	73.8	76.4	-5.02	-5.11	-5.18	-4.92	75	83.6	85.9	70.2
COc1cc2/c(=N/c3ccc(Br)cc3F)nc[nH]c2cc1OCC1CCN(C)CC1 [VANDETANIB]	80.7	77.1	80.9	80.4	-4.74	-4.7	-4.7	-4.75	68.7	54.2	65.1	60.3
